The values below come from publication PMC8294567, “Associations between plasma nucleoside reverse transcriptase inhibitors concentrations and cognitive function in people with HIV” (PLoS ONE, 2021).

The nature of data set [1]: Plasma NRTI concentrations and population PK parameters (POPPY study). The protocol: (§1) NRTI concentrations were measured by a validated method on ultra-performance liquid chromatography (ACQUITY, Waters) in plasma samples collected at study baseline. Briefly, 200 μL of plasma was subjected to solid phase extraction (MCX cartridge, Waters) and the elutants were dried under nitrogen stream before being re-constituted in 50 μL of water. The NRTI drugs were separated using a C18 BEH column (1.7 μm, 2.1 mm x 100 mm, Waters). For each of the four NRTIs, population PK models were determined using nonlinear mixed effects (NONMEM v.7.3) using the $PRIOR subroutine to stabilise the models and aid partition of inter-individual and residual variabilities. The impact of covariates on antiretroviral apparent oral clearance was evaluated. […] Model fit was assessed by statistical and graphical methods.

For data set [2] the following is noted: human, in vivo. The protocol: as §1, with “methods. A decrease in the minimal objective function value (-2*log likelihood) of at least 3.84 units (corresponding to a p-value<0.05) was required to accept a model with an extra parameter. Once significant covariates were incorporated, a backwards elimination process was performed and biologically plausible covariates generating an increase in the objective function value of at least 10.83 (i.e. p<0.001) units were retained.” for “methods.”
Continuous variables, including PK parameters and cognitive z-scores, were summarized using the median and the interquartile range (IQR); categorical variables were described using frequencies and percentages. Associations between NRTI PK parameters and cognitive z-scores were assessed using a series of rank regression models, one for each combination of cognitive domain/global score, NRTI and PK parameter (7x4x3 models). In each model, the cognitive score was considered as the dependent variable and the NRTI PK parameter as an independent variable in addition to the following confounders, selected a priori: age, gender, ethnicity, education, recreational drug use, alcohol consumption, glomerular filtration rate (estimated using the Chronic Kidney Disease Epidemiology Collaboration equation [15]), depressive symptoms (assessed via the Patient Health Questionnaire-9 [16]) use of ritonavir/cobicistat boosted protease inhibitor and use of efavirenz. […] Multivariable analyses were conducted as follows, in order to investigate associations of each PK parameter for one NRTI, independently of the concentration of the other NRTI in the regimen. […] All analyses were performed using the statistical software SAS v9.4 with p-values <0.05 considered as statistically significant.

On the set-up of data set [3]: method as in PMID 16390539. The conditions noted are these: cited from earlier work.
A further data set deals with cognitive function. The settings on record: cited from earlier work.
The mark [4] stands for this setting: PWH on cART, median (IQR), from population PK model.

In general, AUC(0-t) refers to exposure summed from dosing to a finite time, without extrapolation to infinity. In general, Cmax refers to the peak of the concentration-time curve.

Where a name gives a salt, the structure may show the parent alone.

In the case of `Nc1ccn([C@@H]2CS[C@H](CO)O2)c(=O)n1` [3TC, lamivudine], in data set [1] (setting [4]), the Ctrough is given as 3TC: 12.4 (3.0, 126.7) μg/l. Also, in data set [1] (human, po), the AUC(0-t) worked out at 9900 ng·h/mL and the peak level (Cmax) was 2400 ng/mL. For the same compound, in data set [2], the “Eta^2, Age vs Ctrough” value is reported as 0.101; the “Eta^2, Alcohol consumption vs Ctrough” value is on record as 0.005; the “Eta^2, BMI vs Ctrough” value turned out to be 0.002; the “Eta^2, Education vs Ctrough” value was 0.084. For the same compound, in data set [2], the “Eta^2, Ethnicity vs Ctrough” value came out at 0.021; the “Eta^2, Gender vs Ctrough” value was determined as 0.002; the “Eta^2, PHQ-9 score vs Ctrough” value is listed as 0.015; the “Eta^2, Recreational drug use vs Ctrough” value is reported as 0.014. Moreover, in data set [2], the “Eta^2, Use of Efavirenz vs Ctrough” value is on record as 0.041; the “Eta^2, Use of boosted PI vs Ctrough” value amounted to 0.039; the “Eta^2, eGFR vs Ctrough” value was 0.230.

For `CC(C)OC(=O)OCOP(=O)(CO[C@H](C)Cn1cnc2c(N)ncnc21)OCOC(=O)OC(C)C` [TDF, tenofovir disoproxil fumarate], in data set [2], the “Eta^2, Age vs AUC0-24” value is on record as 0.070; the “Eta^2, Age vs Cmax” value was found to be 0.028; the “Eta^2, Age vs Ctrough” value was determined as 0.075; the “Eta^2, Alcohol consumption vs AUC0-24” value amounted to 0.002. Further, in data set [2], the “Eta^2, Alcohol consumption vs Cmax” value was found to be 0.005; the “Eta^2, Alcohol consumption vs Ctrough” value was 0.001; the “Eta^2, BMI vs AUC0-24” value came to 0.095; the “Eta^2, BMI vs Cmax” value came to 0.271. Further, in data set [2], the “Eta^2, BMI vs Ctrough” value worked out at 0.013; the “Eta^2, Education vs AUC0-24” value is recorded as 0.016; the “Eta^2, Education vs Cmax” value was 0.020; the “Eta^2, Education vs Ctrough” value is 0.011. Besides, in data set [2], the “Eta^2, Ethnicity vs AUC0-24” value is listed as 0.007; the “Eta^2, Ethnicity vs Cmax” value amounted to 0.000; the “Eta^2, Ethnicity vs Ctrough” value came out at 0.011; the “Eta^2, Gender vs AUC0-24” value was determined as 0.009. In data set [2], the “Eta^2, Gender vs Cmax” value worked out at 0.033; the “Eta^2, Gender vs Ctrough” value came to 0.001; the “Eta^2, PHQ-9 score vs AUC0-24” value was 0.001; the “Eta^2, PHQ-9 score vs Cmax” value is reported as 0.001. Moreover, in data set [2], the “Eta^2, PHQ-9 score vs Ctrough” value is recorded as 0.002; the “Eta^2, Recreational drug use vs AUC0-24” value is listed as 0.007; the “Eta^2, Recreational drug use vs Cmax” value is 0.000; the “Eta^2, Recreational drug use vs Ctrough” value stood at 0.012. Moreover, in data set [2], the “Eta^2, Use of Efavirenz vs AUC0-24” value is 0.003; the “Eta^2, Use of Efavirenz vs Cmax” value turned out to be 0.000; the “Eta^2, Use of Efavirenz vs Ctrough” value is recorded as 0.005; the “Eta^2, Use of boosted PI vs AUC0-24” value is 0.004. In data set [2], the “Eta^2, Use of boosted PI vs Cmax” value is 0.002; the “Eta^2, Use of boosted PI vs Ctrough” value is 0.004; the “Eta^2, eGFR vs AUC0-24” value was 0.124; the “Eta^2, eGFR vs Cmax” value turned out to be 0.042. Moreover, the “Eta^2, eGFR vs Ctrough” value in data set [2] came out at 0.135. In addition, the CNS penetration entry in data set [3] is recorded as “low CNS penetration”.

For the compound `Nc1nc(=O)n([C@@H]2CS[C@H](CO)O2)cc1F` [FTC, emtricitabine], the Ctrough entry in data set [1] (setting [4]) is recorded as “FTC: 75.0 (59.0, 99.0) μg/l”. In data set [1] (human, po), the AUC(0-t) was 10400 ng·h/mL and the peak level (Cmax) was 1100 ng/mL. In data set [2], the “Eta^2, Age vs AUC0-24” value came to 0.157; the “Eta^2, Age vs Cmax” value was found to be 0.189; the “Eta^2, Age vs Ctrough” value was found to be 0.099; the “Eta^2, Alcohol consumption vs AUC0-24” value is 0.000. Further, in data set [2], the “Eta^2, Alcohol consumption vs Cmax” value is given as 0.000; the “Eta^2, Alcohol consumption vs Ctrough” value was 0.001; the “Eta^2, BMI vs AUC0-24” value amounted to 0.000; the “Eta^2, BMI vs Cmax” value is recorded as 0.000. For the same compound, in data set [2], the “Eta^2, BMI vs Ctrough” value worked out at 0.000; the “Eta^2, Education vs AUC0-24” value is listed as 0.013; the “Eta^2, Education vs Cmax” value came out at 0.011; the “Eta^2, Education vs Ctrough” value was 0.013. In data set [2], the “Eta^2, Ethnicity vs AUC0-24” value is reported as 0.010; the “Eta^2, Ethnicity vs Cmax” value was 0.014; the “Eta^2, Ethnicity vs Ctrough” value was found to be 0.005; the “Eta^2, Gender vs AUC0-24” value is on record as 0.000. Moreover, in data set [2], the “Eta^2, Gender vs Cmax” value came to 0.000; the “Eta^2, Gender vs Ctrough” value is 0.000; the “Eta^2, PHQ-9 score vs AUC0-24” value was 0.004; the “Eta^2, PHQ-9 score vs Cmax” value worked out at 0.002. In addition, in data set [2], the “Eta^2, PHQ-9 score vs Ctrough” value was 0.004; the “Eta^2, Recreational drug use vs AUC0-24” value is listed as 0.030; the “Eta^2, Recreational drug use vs Cmax” value amounted to 0.033; the “Eta^2, Recreational drug use vs Ctrough” value amounted to 0.025. In data set [2], the “Eta^2, Use of Efavirenz vs AUC0-24” value is on record as 0.008; the “Eta^2, Use of Efavirenz vs Cmax” value was found to be 0.008; the “Eta^2, Use of Efavirenz vs Ctrough” value turned out to be 0.005; the “Eta^2, Use of boosted PI vs AUC0-24” value is 0.008. Moreover, in data set [2], the “Eta^2, Use of boosted PI vs Cmax” value was found to be 0.008; the “Eta^2, Use of boosted PI vs Ctrough” value turned out to be 0.005; the “Eta^2, eGFR vs Cmax” value came out at 0.172; the “Eta^2, eGFR vs Ctrough” value is listed as 0.083.

With `C[C@H](Cn1cnc2c(N)ncnc21)OCP(=O)(O)O` [TFV, tenofovir], in data set [1] (setting [4]), the Cmax result is reported as “TFV: 0.3 (0.2, 0.3) mg/l” and the Ctrough entry is “TFV: 53.0 (44.0, 67.0) μg/l”. In data set [1] (human, po), this compound had an AUC(0-t) of 2700 ng·h/mL.

On to `Nc1nc(NC2CC2)c2ncn([C@H]3C=C[C@@H](CO)C3)c2n1` [ABC, abacavir], for which the Ctrough result in data set [1] (setting [4]) is given as “ABC: 2.6 (1.4, 4.6) μg/l”. In data set [1] (human, po), the AUC(0-t) is 12700 ng·h/mL and the highest level (Cmax) was 4200 ng/mL. Moreover, in data set [2], the “Eta^2, Age vs AUC0-24” value is listed as 0.005; the “Eta^2, Age vs Cmax” value came out at 0.017; the “Eta^2, Age vs Ctrough” value is recorded as 0.069; the “Eta^2, Alcohol consumption vs AUC0-24” value amounted to 0.002. In data set [2], the “Eta^2, Alcohol consumption vs Cmax” value worked out at 0.000; the “Eta^2, Alcohol consumption vs Ctrough” value was 0.008; the “Eta^2, BMI vs AUC0-24” value was found to be 0.010; the “Eta^2, BMI vs Cmax” value is 0.014. Moreover, in data set [2], the “Eta^2, BMI vs Ctrough” value came out at 0.000; the “Eta^2, Education vs AUC0-24” value is 0.071; the “Eta^2, Education vs Cmax” value came to 0.033; the “Eta^2, Education vs Ctrough” value was 0.114. In data set [2], the “Eta^2, Ethnicity vs AUC0-24” value is 0.011; the “Eta^2, Ethnicity vs Cmax” value worked out at 0.025; the “Eta^2, Ethnicity vs Ctrough” value was 0.002; the “Eta^2, Gender vs AUC0-24” value was 0.036. Also, in data set [2], the “Eta^2, Gender vs Cmax” value was 0.034; the “Eta^2, Gender vs Ctrough” value is on record as 0.001; the “Eta^2, PHQ-9 score vs AUC0-24” value came out at 0.000; the “Eta^2, PHQ-9 score vs Cmax” value came out at 0.001. In addition, in data set [2], the “Eta^2, PHQ-9 score vs Ctrough” value is given as 0.000; the “Eta^2, Recreational drug use vs AUC0-24” value is given as 0.027; the “Eta^2, Recreational drug use vs Cmax” value is listed as 0.009; the “Eta^2, Recreational drug use vs Ctrough” value is listed as 0.010. In data set [2], the “Eta^2, Use of Efavirenz vs AUC0-24” value amounted to 0.016; the “Eta^2, Use of Efavirenz vs Cmax” value turned out to be 0.000; the “Eta^2, Use of Efavirenz vs Ctrough” value worked out at 0.040; the “Eta^2, Use of boosted PI vs AUC0-24” value turned out to be 0.053. In addition, in data set [2], the “Eta^2, Use of boosted PI vs Cmax” value worked out at 0.008; the “Eta^2, Use of boosted PI vs Ctrough” value is reported as 0.059; the “Eta^2, eGFR vs AUC0-24” value was found to be 0.039; the “Eta^2, eGFR vs Cmax” value came out at 0.000. Further, in data set [2], the “Eta^2, eGFR vs Ctrough” value is 0.089. The “effect on cognitive performance” value in the data set with cognitive function (cohort study) was “beneficial effect”. Further, the “cognitive function after ABC initiation” value with cognitive function (randomized controlled trial, PWH with HIV-associated dementia) is reported as “no improvement of cognitive function”.

As to `CC(C)OC(=O)[C@H](C)N[P@](=O)(CO[C@H](C)Cn1cnc2c(N)ncnc21)Oc1ccccc1` [TAF, tenofovir alafenamide], the “cognitive performances on switching from TDF to TAF” value in the data set with cognitive function (PWH switching from TDF to TAF) is reported as “no changes in cognitive performances”.
